Reference: ChEMBL document CHEMBL3507680, “University of Dundee, Gates Library screen for HepG2 cell viability”

Assay: Human HepG2 cell viability assay in 384 well format
Format: toxicity, cell-based
Design: dose 125 nL, time 70.5 hour; cytotoxicity at 70.5 h: concentration not given beside the values
Details: HepG2 cells, read-out: Inhibition

Structure (SMILES) | cytotoxicity at 70.5 h
COc1ccc(C(=O)N2CCCC(C)C2)cc1F (centres undefined) | -2.9%
Cc1ccc(N2CCCC(NCc3cccc4c3OCCO4)C2)nn1 (centres undefined) | -4.41%
CCOCC(O)CN1CCN(C(=O)C2CC2)CC1 (centres undefined) | -13.7%
Cc1cc(C)n(C2CCCN(C(=O)C3=NN(C)C(=O)CC3)C2)n1 (centres undefined) | -9.81%
COc1cccc(COCC(=O)N2CCCC(c3cc(C)[nH]n3)C2)c1 (centres undefined) | -14.7%
Cn1cc(N2CCCC(NCc3cccc4c3OCCCO4)C2)cn1 (centres undefined) | -14.6%
CCc1nc(CNC(C)Cn2cccn2)cs1 (centres undefined) | -11.9%
Cc1cnn(C2CCCN(C(=O)C3=NN(C)C(=O)CC3)C2)c1 (centres undefined) | 22.6%
COc1ccc(C(=O)N2CCCC(CNS(C)(=O)=O)C2)cc1F (centres undefined) | -10.9%
O=C(NCCNc1ncccn1)N1CCN(Cc2cccnc2)CC1 | 21.2%
Cn1ncc2c1CCCC2NCc1cnc(-c2ccccc2)nc1 (centres undefined) | -0.439%
Cc1ccc(-c2ncc(C(=O)NCCS(N)(=O)=O)s2)c(C)c1 | -1.3%
Cc1ccc(-c2ncc(C(=O)NCCNc3ncccn3)s2)c(C)c1 | 3.03%
CCN1CCN(CC(O)c2ccc(OC(F)(F)F)cc2)CC1 (centres undefined) | 28.9%
CC(C)Oc1ncccc1CNC(=O)c1cc[nH]n1 | -7.86%
OC(CN1CCOCC1)c1ccc(OC(F)(F)F)cc1 (centres undefined) | -9.34%
Cc1cnn(CC2CN(Cc3nc(-c4ccoc4)no3)CCO2)c1 (centres undefined) | -18.2%
N#Cc1ccccc1OCCN1CCCCC1Cn1cncn1 (centres undefined) | -7.56%
COc1cc(C)nc(N2CCN(C(=O)c3ccccc3C)CC2)n1 | 43.9%
COc1ncccc1C(=O)N1CCCC(c2cc(C)[nH]n2)C1 (centres undefined) | -2.72%

Structure (SMILES) | cytotoxicity at 70.5 h
CC(Cn1cccn1)NCc1csc(-c2ccccc2F)n1 (centres undefined) | -15.5%
CC(NC(=O)CN(C)S(C)(=O)=O)c1nnc2n1CCCCC2 (centres undefined) | 48.1%
CC(c1cccc(S(N)(=O)=O)c1)N(C)CCc1ccccc1 (centres undefined) | 11.5%
CSc1ccc(Cl)c(C(=O)N2CCCC(CNS(C)(=O)=O)C2)c1 (centres undefined) | 17.2%
O=C(NCC(=O)N1CCCCC1)c1ccoc1 | -7.84%
CN(C)c1ncccc1CNS(=O)(=O)c1ccccc1F | -27.7%
O=C(NCCn1ccnc1)N1CCN(Cc2cccs2)CC1 | -17.2%
Cc1ccc(C(=O)NCCNc2ncccc2C#N)c(=O)[nH]1 | 20.6%
Cc1nn(C)c(N(C)C)c1CNC(C)c1cccc(OC(C)C)c1 (centres undefined) | -11.2%
Cc1nn(C)c(N(C)C)c1CNC(C)Cc1c(F)cccc1F (centres undefined) | -16.6%
CCOc1ncccc1CNC(=O)Nc1ccc(N(C)C)nc1 | 17.3%
CN(CC1CCCCC1)C(=O)c1ccc(-n2ncc(C#N)c2N)cc1 | -5.32%
O=C(Cc1c[nH]c2ccccc12)N1CCC(Nc2cccnn2)CC1 | -10.3%
CCN(C(=O)c1ccc(-n2ncc(C#N)c2N)cc1)C1CCCC1 | -12.1%
CCc1nccn1C1CCCN(C(=O)c2csc(NC(C)=O)n2)C1 (centres undefined) | -16.5%
Cc1ccc(-c2nnc(CNCCn3cc(C)cn3)o2)cc1 | -18.3%
O=C(NCCN1CCCCC1)c1ccoc1 | 17.6%
CCCn1nc2c(cc1=O)CN(CC(=O)Nc1nnc(C)s1)CC2 | -22%
CCc1n[nH]c(C2CN(C(=O)c3ncoc3C(C)C)CCO2)n1 (centres undefined) | -9.85%
O=C(NCCCn1ccnc1)N1CCN(c2cccs2)CC1 | -8.6%

Structure (SMILES) | cytotoxicity at 70.5 h
COCCN1CCCN(C(=O)NC(C)Cn2ccnc2)CC1 (centres undefined) | 2.76%
Cc1nc(CNCC2CN(C)CCO2)cs1 (centres undefined) | -4.42%
CCc1sc(-c2nnc(CNCCn3cc(C)cn3)o2)cc1C | -1.42%
CCc1nc(C2CCCN2CCn2cncn2)no1 (centres undefined) | -5.31%
COCCOc1cccc(C(=O)N2CCCC(n3ccnc3C)C2)c1 (centres undefined) | -2.47%
Cc1nn(C)c(N(C)C)c1CNC(C)COc1cccc(F)c1 (centres undefined) | 23.8%
CN(Cc1cn2ccccc2c1C#N)C1CCCN(c2cccnn2)C1 (centres undefined) | -11.9%
CCc1nc(C2CCCN2C(=O)CCCn2cccn2)no1 (centres undefined) | -7.2%
Cc1nc(COc2ccc(CNCC3CN(C)CCO3)cc2)cs1 (centres undefined) | 20.1%
COCCOc1cccc(C(=O)N2CCCC(n3cccn3)C2)c1 (centres undefined) | -14.7%
CN(Cc1noc(C2CC2)n1)C1CCN(Cc2nnc(C3CC3)o2)C1 (centres undefined) | -3.86%
CC(=O)N(Cc1noc(C)n1)C1CCN(CCOc2ccccc2)C1 (centres undefined) | 1.16%
Cc1nc(CN2CCC(N(C)Cc3noc(C4CC4)n3)C2)oc1C (centres undefined) | 4.91%
Cc1nc(CN(C)C2CCN(Cc3ccc4ccccc4n3)C2)no1 (centres undefined) | 20.5%
COCCNC(=O)Nc1ccc(F)c(C(N)=O)c1 | -6.9%
CC(C)c1cc(NC(=O)CN2CCNC(=O)C2)on1 | -5.09%
CN1CCC/C1=N\S(=O)(=O)c1ccc(NC(=O)CCc2cccs2)cc1 | -1.04%
CC(C)C(NC(=O)Cn1ccc(=O)n(C)c1=O)c1ccc(F)cc1 (centres undefined) | -13.2%
COc1c(CNC2CCSc3ccc(F)cc32)c(C)nn1C (centres undefined) | 25.9%
